Measurements reported in patent US20230151432A1, “KIF18A INHIBITORS FOR TREATMENT OF NEOPLASTIC DISEASES” (AMGEN INC., priority 2020, published 2023).
pIC50: −log10 of the molar value.

Assays:
[1] = tested on: five KIF18A inhibitor-sensitive cancer cell lines; assay: 6-day cell growth assay with re-plating in drug-free media; assay type: cell-based, human
Experimental: To better understand the durability of response after KIF18A inhibitor treatment, all five KIF18A inhibitor-sensitive cancer cell lines were treated with DMSO or Compound C11 in a 6-day cell growth assay, where the surviving cells were washed, collected, counted, and re-plated in drug-free growth media and cultured for additional 7 to 9 days. MCF-7 cells treated with a CDK 4/6 inhibitor was included as a cytostatic comparator.

[2] = target: T1, mouse KIF18A (residues 1-467) (Mus musculus, UniProt Q91WD7); assay: KIF18A MT-ATPase motor activity, ADP-Glo luminescence assay (Example 19); assay type: biochemical; settings: mouse KIF18A 4 nM, 30 μM ATP; read-out: IC50, KIF18A motor activity (MT-ATPase)
T1 construct: mouse KIF18A (residues 1-467, 4 nM); made in house
Experimental: A trio of KIF18A inhibitors (Compound C9, Compound C11, and Compound C12) were synthesized and tested in vitro for KIF18A inhibitory activity. […] The values represent mean t SEM from three independent experiments. […] As in vivo studies in mice were planned, the mouse KIF18A inhibitory effects of Compound C9 and C12 were assayed.
KIF18A compounds C9, C11, C12 were 2-fold serially diluted over a 22-point concentration range in DMSO using 384-well plate (Corning). Recombinant truncated kinesin motor proteins (human KIF18A (residues 1-467, 4 nM), mouse KIF18A (residues 1-467, 4 nM)) were expressed and purified. ADP-Glo luminescence assay (Promega) was used to measure the MT-ATPase motor activity. Porcine brain MTs were procured from Cytoskeleton Inc. Compounds were pre-incubated for <30 min in reaction buffer (15 mM Tris, pH 7.5, 10 mM MgCl2, 0.01% Pluronic F-68, 2% DMSO, 1 μM paclitaxel, 30 μg/mL MTs) with motor proteins at concentrations indicated above, 30 μM ATP was added to initiate the enzymatic reaction for 15 min at room temperature (RT). ADP-Glo reagents were added according to manufactures protocol, the luminescence intensity proportional to ADP present was measured using an EnVision plate reader (Perkin Elmer). Raw luminescence signal data was normalized to POC (percentage of positive control) and then Activity (%) was computed [POC=100×(sample signal−negative control signal)+(positive control signal−negative control signal). Activity (%)=POC−100]. The positive control (enzyme+substrate) and negative control (substrate alone) had equivalent concentrations of DMSO. Curve-fitting and IC50 values were determined by 4-parameter non-linear regression equation (variable slope) using GraphPad Prism 7.05 (GraphPad Software).

[3] = tested on: KIF18A protein localization in HeLa cells; assay: KIF18A and Centrin-3 immunostaining; assay type: cell-based, human; settings: 0.05 μM, 6 hours
Experimental: To analyze the effect of KIF18A protein localization in cancer cells treated with a KIF18A inhibitor, KIF18A and Centrin-3 immunostaining in HeLa cells (FIG. 11). Cells were seeded into Lab-Tek 2-well chamber slides at a density of 100,000 cells per chamber in complete growth media and grown for 2 days to approximately 80% confluency. Cells were treated for 6 hours with DMSO, KIF18A inhibitor (Compound C9, 0.05 μM) in 2 mL of complete media. Cells were fixed in 4% formaldehyde for 15 minutes at room temperature followed by secondary fixation in ice-cold 90% methanol for 10 minutes at 4° C. After fixation, cells were washed in 2 mL of Wash Buffer (1% BSA, 0.2% Triton X-100, 1×PBS) and blocked 1 mL of Blocking Buffer (2 drops of horse serum (Vector Labs, Burlingame, Calif.) per 5 mL Wash Buffer). Cells are stained with anti-KIF18A rabbit antibody (1:3000, A301-080A 05-806, Bethyl) and anti-CETN3 mouse antibody (1:1000, H00001070-M01, Abnova) in 1 mL of Wash Buffer for 2 hours at room temperature. Cells were washed twice with 2 mL Wash Buffer. […] Wide-field images were captured using 40×objective on upright Nikon Eclipse NI-E epi-fluorescence microscope running Elements software. […]

OVCAR-3 tumors = assay: OVCAR-3 Tumor Xenograft Efficacy Study (IP); settings: 100 mg/kg IP once daily for 18 consecutive days
Experimental: Mice were injected with human OVCAR-3 cells (5.0×10^6) subcutaneously in the right flank. Animals with established tumors were randomized into four groups (n=10 per group) with average tumor volume of 130 mm^3. […] Treatment started on day 24 post-tumor implantation and treatment terminal on day 42. Tumor volumes and body weights were recorded twice per week using a digital caliper and analytical lab scale, respectively. […] The percentage of tumor growth inhibition (% TGI) was calculated as % TGI relative to vehicle control: % TGI=100−[(Treated−Initial Volume)/(Control−Initial Volume)×100]. The percentage of tumor regression (% TR) was calculated as % TR compared final tumor volume to the initial tumor volume: % TR=100−[(Final Volume)/(Initial Volume)×100]. Data was graphed using GraphPad Prism 7.05. Statistical analysis was performed on treatment groups for tumor growth and blood counts using repeated measures ANOVA and one-way ANOVA, respectively, followed by Dunnett's multiple comparisons test.

[4] = tested on: human OVCAR-8 HGSOC xenograft model (TP53MUT, BRCA1silenced); assay: OVCAR-8 xenograft efficacy study, oral dosing (Example 4); assay type: in vivo, mouse
Experimental: Female athymic nude mice were injected with 5×10^6 OVCAR-8 cells in 0.1 mL subcutaneously in the right flank. […] Tumor volume and animal body weight measurements were determined twice per week (study start day 25, study end day 47). Tumor measurements, formulas, and regression analysis as described above for FIGS. 5A-5B. Data was plotted using GraphPad Prism software (V7.0.4), tumor volume and body weight data are expressed as means plus or minus standard error of the mean and plotted as a function of time. Statistical significance of observed differences between growth curves were calculated using SLACR package (v.1.0.3).

T1 sequence (Q91WD7 1-467): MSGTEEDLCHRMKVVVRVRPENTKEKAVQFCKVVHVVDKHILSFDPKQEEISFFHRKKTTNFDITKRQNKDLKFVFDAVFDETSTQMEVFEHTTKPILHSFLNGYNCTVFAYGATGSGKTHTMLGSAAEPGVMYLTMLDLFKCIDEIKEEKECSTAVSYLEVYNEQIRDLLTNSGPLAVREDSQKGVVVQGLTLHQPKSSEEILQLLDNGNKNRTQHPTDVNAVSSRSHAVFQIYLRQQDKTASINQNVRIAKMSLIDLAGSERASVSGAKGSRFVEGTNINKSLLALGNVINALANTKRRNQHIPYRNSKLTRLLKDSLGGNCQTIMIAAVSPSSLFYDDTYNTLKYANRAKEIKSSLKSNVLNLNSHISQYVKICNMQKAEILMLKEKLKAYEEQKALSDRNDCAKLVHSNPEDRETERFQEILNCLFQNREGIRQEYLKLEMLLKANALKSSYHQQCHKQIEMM
T1 sequence (P02550 whole entry partner, the tested form may be a part): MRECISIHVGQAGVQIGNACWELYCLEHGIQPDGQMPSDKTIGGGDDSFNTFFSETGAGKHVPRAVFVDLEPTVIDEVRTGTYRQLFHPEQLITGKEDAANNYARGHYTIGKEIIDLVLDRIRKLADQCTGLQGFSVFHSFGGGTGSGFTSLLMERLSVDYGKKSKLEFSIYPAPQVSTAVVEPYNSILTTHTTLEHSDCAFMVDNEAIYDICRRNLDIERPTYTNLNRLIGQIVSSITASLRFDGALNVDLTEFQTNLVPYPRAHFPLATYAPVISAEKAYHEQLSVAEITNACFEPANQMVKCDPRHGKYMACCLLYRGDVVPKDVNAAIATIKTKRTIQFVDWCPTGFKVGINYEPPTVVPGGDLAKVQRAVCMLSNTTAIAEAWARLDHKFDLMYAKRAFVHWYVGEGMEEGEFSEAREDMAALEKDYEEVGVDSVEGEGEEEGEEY
T1 sequence (P02554 whole entry partner, the tested form may be a part): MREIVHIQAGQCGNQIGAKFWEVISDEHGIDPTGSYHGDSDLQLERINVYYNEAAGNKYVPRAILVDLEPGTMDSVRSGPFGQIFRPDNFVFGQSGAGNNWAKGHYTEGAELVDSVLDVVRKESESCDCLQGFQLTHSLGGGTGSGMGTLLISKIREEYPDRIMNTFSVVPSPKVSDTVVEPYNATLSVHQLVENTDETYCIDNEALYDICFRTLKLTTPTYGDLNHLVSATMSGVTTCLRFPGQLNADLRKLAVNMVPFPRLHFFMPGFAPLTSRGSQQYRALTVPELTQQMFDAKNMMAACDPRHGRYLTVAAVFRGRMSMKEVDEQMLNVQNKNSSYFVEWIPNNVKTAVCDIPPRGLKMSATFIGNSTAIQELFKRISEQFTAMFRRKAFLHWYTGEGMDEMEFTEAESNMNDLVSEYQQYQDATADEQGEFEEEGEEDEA

CC(C)(CO)Nc1ccc(C(=O)Nc2cccc(S(=O)(=O)C3CCCC3)c2)c(N2CCC3(CC2)CC3)n1 [Compound C11, N-(3-(cyclopentylsulfonyl)phenyl)-6-((1-hydroxy-2-methylpropan-2-yl)amino)-2-(6-azaspiro[2.5]octan-6-yl)nicotinamide]
cell growth and colony formation ([1]; 6-day treatment): significant decrease in cell growth and colony formation | cell growth potential after drug withdrawal relative to DMSO control ([1]; re-plated in drug-free media, additional 7 to 9 days): marked reduction cell growth potential

CC(C)(C)NS(=O)(=O)c1cccc(NC(=O)c2ccc(S(=O)(=O)NC(C)(C)C)cc2N2CCC3(CC2)CC3)c1 [Compound C9, 4-(N-(tert-butyl)sulfamoyl)-N-(3-(N-(tert-butyl)sulfamoyl)phenyl)-2-(6-azaspiro[2.5]octan-6-yl)benzamide]
pIC50 [2]: 6.63 | KIF18A protein localization in mitosis [3]: KIF18A protein mis-localization in mitosis | tumor regression (OVCAR-3 tumors): 73%

Cc1cc(NC(=O)c2ccc(NS(=O)(=O)CCO)cc2N2CCC3(CC2)CC3)nc(N2CCC(F)(F)CC2)n1 [Compound C14, N-(2-(4,4-Difluoropiperidin-1-yl)-6-methylpyrimidin-4-yl)-4-((2-hydroxyethyl)sulfonamido)-2-(6-azaspiro[2.5]octan-6-yl)benzamide]
tumor growth inhibition (TGI) ([4]; 10 mg/kg PO QD, day 25 to day 47): 57% | tumor-free animals ([4]; 30 mg/kg PO QD): 4 of 10 | tumor regression ([4]; 30 mg/kg PO QD, day 25 to day 47): 86% | tumor-free animals ([4]; 100 mg/kg PO QD): 8 of 10 | tumor regression ([4]; 100 mg/kg PO QD, day 25 to day 47): 98%
